Reference: US5284774A (priority 1991, dated 1994)
pKi: −log10 of the molar value. Where “and” joins values, the source holds several entries; their conditions need not be identical. Equal values may be shown once. Entries after “also recorded” stand apart in the source; their conditions may differ. Read-outs that look alike come from different tables or passages of the source.

How the values were obtained:
[1] = dulbecco's phosphate buffered saline
murine CFU-C = details: for CC90: mouse, bone marrow cfu-c, 0.75 h
System L = target: T1, System L (Mus musculus, UniProt Q9Z127); format: cell-based, murine
T1 construct: Murine L1210 Leukemia cells were grown in RPMI 1630 medium; endogenous in cells; host or cells: murine L1210 leukemia cells

[2] = test system: murine L1210 leukemia cells; format: cell-based; details: for IC90: l1210 cells, 45 min, read-out: LD90, murine L1210 leukemia cells (antitumor activity)
[3] = read-out: KI, inhibition of initial rate of transport of BCH
[4] = read-out: Ki, competitive inhibition of BCH transport

T1 sequence (Q9Z127 whole entry): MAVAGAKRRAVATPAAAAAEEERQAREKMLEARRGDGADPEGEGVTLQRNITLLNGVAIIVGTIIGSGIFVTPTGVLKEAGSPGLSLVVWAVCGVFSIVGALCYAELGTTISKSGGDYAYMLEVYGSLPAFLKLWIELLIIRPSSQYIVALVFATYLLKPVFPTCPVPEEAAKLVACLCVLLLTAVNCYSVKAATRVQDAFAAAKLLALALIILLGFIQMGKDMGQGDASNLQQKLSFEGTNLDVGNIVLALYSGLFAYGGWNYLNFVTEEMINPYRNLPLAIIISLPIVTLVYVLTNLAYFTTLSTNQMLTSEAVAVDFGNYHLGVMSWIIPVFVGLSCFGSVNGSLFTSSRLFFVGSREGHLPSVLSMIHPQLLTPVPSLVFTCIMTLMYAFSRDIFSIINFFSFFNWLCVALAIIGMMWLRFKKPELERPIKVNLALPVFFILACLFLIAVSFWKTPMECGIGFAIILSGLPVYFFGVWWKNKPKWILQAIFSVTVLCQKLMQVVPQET
T1 sequence (P10852 whole entry partner): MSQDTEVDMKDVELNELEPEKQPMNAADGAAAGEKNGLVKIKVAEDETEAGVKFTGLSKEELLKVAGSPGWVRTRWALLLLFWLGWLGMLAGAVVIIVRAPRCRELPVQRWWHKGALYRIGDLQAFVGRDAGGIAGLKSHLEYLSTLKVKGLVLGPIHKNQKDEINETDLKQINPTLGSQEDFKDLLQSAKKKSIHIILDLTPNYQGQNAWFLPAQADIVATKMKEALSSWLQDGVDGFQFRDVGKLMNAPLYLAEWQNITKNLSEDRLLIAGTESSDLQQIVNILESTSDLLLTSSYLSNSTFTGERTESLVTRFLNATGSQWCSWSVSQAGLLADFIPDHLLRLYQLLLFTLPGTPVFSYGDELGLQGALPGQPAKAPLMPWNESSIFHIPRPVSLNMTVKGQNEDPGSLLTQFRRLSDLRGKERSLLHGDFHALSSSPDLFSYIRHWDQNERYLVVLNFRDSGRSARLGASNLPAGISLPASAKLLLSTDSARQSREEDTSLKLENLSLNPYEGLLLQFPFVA

| Compound | half life (t1/2) [1] | myelosuppressive activity (in words) (murine CFU-C) | CC90 (murine CFU-C) [µM] | KI lower / affinity for System L greater than that of L-phenylalanine mustard (System L) [fold] | inhibition of System L (in words) (System L) | more effective inhibitor of System L than BCH (System L) | more potent than 2-amino-1,2,3,4-tetrahydro-2-naphthoic acid (System L) | pKi (System L; [3]) | pKi (System L; [4]) | antitumor activity (in words) [2] | improvement in therapeutic index [2] | IC90 [2] [µM] |
| --- | --- | --- | --- | --- | --- | --- | --- | --- | --- | --- | --- | --- |
| NC1(C(=O)O)CCc2ccc(N(CCCl)CCCl)cc2C1 (racemic) [Compound 6, DL-2-Amino-7-bis(2-chloroethyl)amino-1,2,3,4-tetrahydro-2-naphthoic acid] | approximately 40 minutes | reduced myelosuppressive activity | 23.8 | 500 | extremely potent competitive inhibitor; also recorded: most potent inhibitor of System L | 25-50 fold | approximately 40 fold | ~6.70 | 6.66 | enhanced antitumor activity | 2-2.5 fold and 2 fold | 26.5 |
| NC1(C(=O)O)CCc2c(cccc2N(CCCl)CCCl)C1 (racemic) [Compound 7, DL-2-Amino-5-bis-(2-chloroethyl) amino-1,2,3,4-tetrahydro-2-naphthoic acid] | – | – | – | – | weaker inhibitor | – | – | 4.82 | – | – | – | – |
| L-phenylalanine mustard [L-PAM, reference compound] | – | – | 14 | – | – | – | – | – | 3.95 | – | – | 35 |
